Here are results for 28 compounds from patent publication US8796289B2 (AbbVie Inc., priority 2011, dated 2014).

The target in the experiment is GST-tagged-Wee1 kinase (Homo sapiens, UniProt P30291). The experiment is described as follows: Wee1 time-resolved fluorescence equilibrium binding assay (displacement of Oregon Green-labeled ATP-competitive kinase probe). The method, then: Wee1 kinase was assayed using a time-resolved fluorescence equilibrium binding assay monitoring displacement of a rapidly reversible Oregon Green-labeled ATP-competitive kinase probe (N-(2-(2-(2-(4-(4-(5-chloro-4-(2-(1-hydroxycyclobutyl)thiazol-5-yl)-1H-pyrrolo[2,3-b]pyridin-2-yl)phenyl)piperazin-1-yl)ethoxy)ethoxy)ethyl)-2′,7′-difluoro-3′,6′-dihydroxy-3-oxo-3H-spiro[isobenzofuran-1,9′-xanthene]-5-carboxamide) by competitive Wee1 inhibitors.
Sequence of GST-tagged-Wee1 kinase (P30291 whole entry): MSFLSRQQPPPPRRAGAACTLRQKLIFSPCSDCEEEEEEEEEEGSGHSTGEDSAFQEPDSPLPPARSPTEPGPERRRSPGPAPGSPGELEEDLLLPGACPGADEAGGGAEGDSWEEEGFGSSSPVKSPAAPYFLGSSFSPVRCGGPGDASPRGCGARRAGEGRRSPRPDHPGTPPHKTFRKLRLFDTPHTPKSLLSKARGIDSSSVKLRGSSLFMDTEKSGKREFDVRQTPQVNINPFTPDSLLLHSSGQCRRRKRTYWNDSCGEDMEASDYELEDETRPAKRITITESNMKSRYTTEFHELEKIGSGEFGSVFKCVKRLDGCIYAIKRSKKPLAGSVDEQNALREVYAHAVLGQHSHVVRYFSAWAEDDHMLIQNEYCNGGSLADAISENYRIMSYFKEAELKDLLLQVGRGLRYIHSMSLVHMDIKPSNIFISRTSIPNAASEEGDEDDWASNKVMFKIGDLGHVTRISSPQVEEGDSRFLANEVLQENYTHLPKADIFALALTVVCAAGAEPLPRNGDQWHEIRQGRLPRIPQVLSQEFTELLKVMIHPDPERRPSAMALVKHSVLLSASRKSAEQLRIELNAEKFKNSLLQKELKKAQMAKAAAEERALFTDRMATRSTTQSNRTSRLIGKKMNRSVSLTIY
The Ki is a measure of affinity in units of concentration, obtained from inhibition or displacement. Take `CN1Cc2cc(Nc3ncc4c(=O)n(CCO)nc(-c5ccccn5)c4n3)ccc2C(C)(C)C1` [Example 242, 6-(2-hydroxyethyl)-8-(pyridin-2-yl)-2-[(2,4,4-trimethyl-1,2,3,4-tetrahydroisoquinolin-7-yl)amino]pyrimido[4,5-d]pyridazin-5(6H)-one]: affinity was put at a Ki of 50 nM. `CN1CCN(c2ccc(Nc3ncc4c(=O)n(C)nc(C5CC(F)(F)C5)c4n3)cc2)CC1` [Example 187, 8-(3,3-difluorocyclobutyl)-6-methyl-2-{[4-(4-methylpiperazin-1-yl)phenyl]amino}pyrimido[4,5-d]pyridazin-5(6H)-one] registered a Ki of 1800 nM. To `CC(=O)c1cccc(-c2nn(-c3c(Cl)cccc3Cl)c(=O)c3cnc(Nc4ccc(N5CCN(C)CC5)cc4)nc23)c1` [Example 185, 8-(3-acetylphenyl)-6-(2,6-dichlorophenyl)-2-{[4-(4-methylpiperazin-1-yl)phenyl]amino}pyrimido[4,5-d]pyridazin-5(6H)-one] belongs 0.04 nM.

`CC(C)n1nc(-c2ccccn2)c2nc(Nc3ccc(N4CCN(C)CC4)cc3)ncc2c1=O` [Example 272, 2-{[4-(4-methylpiperazin-1-yl)phenyl]amino}-6-(propan-2-yl)-8-(pyridin-2-yl)pyrimido[4,5-d]pyridazin-5(6H)-one] yielded a Ki of 100 nM.

As for `CNC(=O)c1ccc(-c2nn(-c3c(Cl)cccc3Cl)c(=O)c3cnc(Nc4ccc(N5CCN(C)CC5)cc4)nc23)cc1` [Example 293, 4-[6-(2,6-dichlorophenyl)-2-{[4-(4-methylpiperazin-1-yl)phenyl]amino}-5-oxo-5,6-dihydropyrimido[4,5-d]pyridazin-8-yl]-N-methylbenzamide], the affinity corresponds to a Ki of 0.25 nM.

Turning to `Cc1cc(Nc2ncc3c(=O)n(-c4ccccc4Cl)nc(-c4ccccc4)c3n2)ccc1N1CCCN(C(C)C)CC1` [Example 206, 6-(2-chlorophenyl)-2-({3-methyl-4-[4-(propan-2-yl)-1,4-diazepan-1-yl]phenyl}amino)-8-phenylpyrimido[4,5-d]pyridazin-5(6H)-one], the Ki came out at 0.2 nM.

Turning to `COc1cc(N2CCC(N3CCN(C)CC3)CC2)ccc1Nc1ncc2c(=O)n(-c3c(Cl)cccc3Cl)nc(C)c2n1` [Example 363, 6-(2,6-dichlorophenyl)-2-({2-methoxy-4-[4-(4-methylpiperazin-1-yl)piperidin-1-yl]phenyl}amino)-8-methylpyrimido[4,5-d]pyridazin-5(6H)-one], the Ki stood at 40 nM.

Regarding `COC(=O)c1cc(-c2nn(-c3c(Cl)cccc3Cl)c(=O)c3cnc(Nc4ccc(N5CCN(C)CC5)cc4)nc23)ccn1` [Example 222, methyl 4-[6-(2,6-dichlorophenyl)-2-{[4-(4-methylpiperazin-1-yl)phenyl]amino}-5-oxo-5,6-dihydropyrimido[4,5-d]pyridazin-8-yl]pyridine-2-carboxylate], the Ki came to 0.2 nM. To `O=c1c2cnc(Nc3ccc4c(c3)CNCC43CC3)nc2c(-c2ccncc2)nn1-c1c(Cl)cccc1Cl` [Example 253, 6-(2,6-dichlorophenyl)-2-(2′,3′-dihydro-1′H-spiro[cyclopropane-1,4′-isoquinolin]-7′-ylamino)-8-(pyridin-4-yl)pyrimido[4,5-d]pyridazin-5(6H)-one] belongs 0.09 nM. To `O=c1c2cnc(Nc3ccc(N4CCNCC4)cc3)nc2c(-c2cccc(CN3CCCCC3)c2)nn1-c1c(Cl)cccc1Cl` [Example 237, 6-(2,6-dichlorophenyl)-2-{[4-(piperazin-1-yl)phenyl]amino}-8-[3-(piperidin-1-ylmethyl)phenyl]pyrimido[4,5-d]pyridazin-5(6H)-one] belongs 0.2 nM. To `CN1CCN(c2ccc(Nc3ncc4c(=O)n(-c5c(Cl)cccc5Cl)nc(-c5cccc(N6CCCCC6=O)c5)c4n3)cc2)CC1` [Example 93, 6-(2,6-dichlorophenyl)-2-{[4-(4-methylpiperazin-1-yl)phenyl]amino}-8-[3-(2-oxopiperidin-1-yl)phenyl]pyrimido[4,5-d]pyridazin-5(6H)-one] belongs 0.1 nM; to `Cc1nn(-c2c(Cl)cccc2Cl)c(=O)c2cnc(Nc3ccc4c(c3)CN(C)CC43CC3)nc12` [Example 401, 6-(2,6-dichlorophenyl)-8-methyl-2-[(2′-methyl-2′,3′-dihydro-1′H-spiro[cyclopropane-1,4′-isoquinolin]-7′-yl)amino]pyrimido[4,5-d]pyridazin-5(6H)-one], 0.22 nM. With `CN(C)Cc1ccc(Nc2ncc3c(=O)n(-c4ccccc4Cl)nc(-c4ccccc4)c3n2)cc1` [Example 204, 6-(2-chlorophenyl)-2-({4-[(dimethylamino)methyl]phenyl}amino)-8-phenylpyrimido[4,5-d]pyridazin-5(6H)-one], the Ki stood at 2 nM.

In turn, `CC(=O)N1CCN(c2ccc(Nc3ncc4c(=O)n(-c5c(Cl)cccc5Cl)nc(-c5ccccn5)c4n3)cc2)CC1` [Example 374, 2-{[4-(4-acetylpiperazin-1-yl)phenyl]amino}-6-(2,6-dichlorophenyl)-8-(pyridin-2-yl)pyrimido[4,5-d]pyridazin-5(6H)-one] yielded a Ki of 0.67 nM. The result for `Cc1nn(-c2c(Cl)cncc2Cl)c(=O)c2cnc(Nc3ccc4c(c3)CN(C)CC43CC3)nc12` [Example 487, 6-(3,5-dichloropyridin-4-yl)-8-methyl-2-[(2′-methyl-2′,3′-dihydro-1′H-spiro[cyclopropane-1,4′-isoquinolin]-7′-yl)amino]pyrimido[4,5-d]pyridazin-5(6H)-one] reads 0.27 nM. The result for `CN1CCN(c2ccc(Nc3ncc4c(=O)n(-c5cccc(F)c5)nc(C5CC(F)(F)C5)c4n3)cc2)CC1` [Example 199, 8-(3,3-difluorocyclobutyl)-6-(3-fluorophenyl)-2-{[4-(4-methylpiperazin-1-yl)phenyl]amino}pyrimido[4,5-d]pyridazin-5(6H)-one] reads 82 nM. To `Cc1ccccc1-n1nc(-c2cccc(N3CCCC3)n2)c2nc(Nc3ccc(N4CCN(C)CC4)cc3)ncc2c1=O` [Example 182, 6-(2-methylphenyl)-2-{[4-(4-methylpiperazin-1-yl)phenyl]amino}-8-[6-(pyrrolidin-1-yl)pyridin-2-yl]pyrimido[4,5-d]pyridazin-5(6H)-one] belongs 12 nM; to `C=CCn1nc(C)c2nc(Nc3ccc(N4CCN(C)CC4)cc3)ncc2c1=O` [Example 2, 6-allyl-8-methyl-2-{[4-(4-methylpiperazin-1-yl)phenyl]amino}pyrimido[4,5-d]pyridazin-5(6H)-one], 140 nM; to `COC(=O)c1cccc(-c2nn(-c3c(Cl)cccc3Cl)c(=O)c3cnc(Nc4ccc(N5CCN(C)CC5)cc4)nc23)c1` [Example 188, methyl 3-[6-(2,6-dichlorophenyl)-2-{[4-(4-methylpiperazin-1-yl)phenyl]amino}-5-oxo-5,6-dihydropyrimido[4,5-d]pyridazin-8-yl]benzoate], 1 nM. Turning to `CN1Cc2cc(Nc3ncc4c(=O)n(-c5c(Cl)cccc5Cl)nc(CO)c4n3)ccc2C2(CC2)C1` [Example 432, 6-(2,6-dichlorophenyl)-8-(hydroxymethyl)-2-[(2′-methyl-2′,3′-dihydro-1′H-spiro[cyclopropane-1,4′-isoquinolin]-7′-yl)amino]pyrimido[4,5-d]pyridazin-5(6H)-one], the Ki stood at 0.2 nM.

Compound `Cc1nn(-c2ccccc2Cl)c(=O)c2cnc(Nc3ccc4c(c3)CN(C)CC4(C)C)nc12` [Example 483, 6-(2-chlorophenyl)-8-methyl-2-[(2,4,4-trimethyl-1,2,3,4-tetrahydroisoquinolin-7-yl)amino]pyrimido[4,5-d]pyridazin-5(6H)-one] registered a Ki of 0.55 nM. To `CN1CCN(c2ccc(Nc3ncc4c(=O)n(-c5ccncc5Cl)nc(-c5ccccn5)c4n3)cc2)CC1` [Example 384, 6-(3-chloropyridin-4-yl)-2-{[4-(4-methylpiperazin-1-yl)phenyl]amino}-8-(pyridin-2-yl)pyrimido[4,5-d]pyridazin-5(6H)-one] belongs 13 nM; to `CN1CCN(c2ccc(Nc3ncc4c(=O)n(-c5ccccc5)nc(-c5ccc(Cl)cc5Cl)c4n3)cc2)CC1` [Example 42, 8-(2,4-dichlorophenyl)-2-{[4-(4-methylpiperazin-1-yl)phenyl]amino}-6-phenylpyrimido[4,5-d]pyridazin-5(6H)-one], 400 nM. In turn, `CN1CCN(c2ccc(Nc3ncc4c(=O)n(-c5ccccc5Cl)nc(-c5ccc(Cl)cc5Cl)c4n3)cc2)CC1` [Example 38, 6-(2-chlorophenyl)-8-(2,4-dichlorophenyl)-2-{[4-(4-methylpiperazin-1-yl)phenyl]amino}pyrimido[4,5-d]pyridazin-5(6H)-one] displayed a Ki of 24 nM. To `O=c1c2cnc(Nc3ccc(N4CCNCC4)cc3)nc2c(-c2ccccn2)nn1-c1c(Cl)cccc1Cl` [Example 284, 6-(2,6-dichlorophenyl)-2-{[4-(piperazin-1-yl)phenyl]amino}-8-(pyridin-2-yl)pyrimido[4,5-d]pyridazin-5(6H)-one] belongs 0.36 nM; to `CN1CCN(c2ccc(Nc3ncc4c(=O)n(-c5cccc(Cl)c5)nc(-c5ccc(Cl)cc5Cl)c4n3)cc2)CC1` [Example 44, 6-(3-chlorophenyl)-8-(2,4-dichlorophenyl)-2-{[4-(4-methylpiperazin-1-yl)phenyl]amino}pyrimido[4,5-d]pyridazin-5(6H)-one], 520 nM; to `CN1CCN(c2ccc(Nc3ncc4c(=O)n(-c5c(Cl)cccc5Cl)nc(-c5cccnc5)c4n3)cc2)CC1` [Example 99, 6-(2,6-dichlorophenyl)-2-{[4-(4-methylpiperazin-1-yl)phenyl]amino}-8-(pyridin-3-yl)pyrimido[4,5-d]pyridazin-5(6H)-one], 0.09 nM. The result for `COC(=O)c1ccc(-c2nn(-c3c(Cl)cccc3Cl)c(=O)c3cnc(Nc4ccc(N5CCN(C)CC5)cc4)nc23)cc1` [Example 277, methyl 4-[6-(2,6-dichlorophenyl)-2-{[4-(4-methylpiperazin-1-yl)phenyl]amino}-5-oxo-5,6-dihydropyrimido[4,5-d]pyridazin-8-yl]benzoate] reads 1.2 nM.
